Experimental data as given in US10035808B1, “Isatin peroxo compounds with antibacterial activities and a method of preparing the same” (SHAANXI UNIVERSITY OF SCIENCE AND TECHNOLOGY, priority 2018, dated 2018).

Assays:
[1] = tested on: all the four tested bacteria (EPEC, ETEC, EIEC, EHEC); assay: Bacteriostatic circle test, summary over all four tested bacteria; assay type: cell-based, Escherichia coli
Description: (§1) The compounds of the present invention have been tested for antibacterial activity, and a bacteriostatic circle method was used to determine the antibacterial activity.
(§2) Test strains and medium: Enteropathogenic Escherichia coli (EPEC), Enterotoxigenic Escherichia coli (ETEC), Enteroinvasive Escherichia coli (EIEC), Enterohemorrhagic Escherichia coli (EHEC); beef peptone medium.
(§3) Preparation of test strains: (1) test strains were placed in culture medium in test tubes in an incubator (bacteria: 37° C., 24 hours; fungi: 28° C., 48 hours), and stored at 0-4° C.; (2) the test strains were inoculated with a small loop in test tubes containing 9 mL sterile water, mixing well to make suspensions, and adjusting the concentration to 10^6-10^7 cfu·mL^−1. The suspensions were used for bacteriostatic circle test.
(§4) Antibacterial activity determination: solvent dimethyl sulfoxide (DMSO) was used as a negative control, the sizes of antibacterial ring diameters indicated the strength of the antibacterial activities.

[2] = tested on: Enterotoxigenic Escherichia coli (ETEC); assay: Bacteriostatic circle test, ETEC; assay type: cell-based; details: bacteriostatic circle method; strain ETEC; DMSO negative control
Description: as §1, §2, §3, §4

[3] = tested on: Enterohemorrhagic Escherichia coli (EHEC); assay: Bacteriostatic circle test, EHEC; assay type: cell-based; details: bacteriostatic circle method; strain EHEC; DMSO negative control
Description: as §1, §2, §3, §4

[4] = tested on: Enteroinvasive Escherichia coli (EIEC); assay: Bacteriostatic circle test, EIEC; assay type: cell-based; details: bacteriostatic circle method; strain EIEC; DMSO negative control
Description: as §1, §2, §3, §4

[5] = tested on: Enteropathogenic Escherichia coli (EPEC); assay: Bacteriostatic circle test, EPEC; assay type: cell-based; details: bacteriostatic circle method; strain EPEC; DMSO negative control
Description: as §1, §2, §3, §4

SMILES | antibacterial activities (result in words) [1] | Circle Size [2] [mm] | Circle Size [3] [mm] | Circle Size [4] [mm] | Circle Size [5] [mm]
CC(=O)C1=C(C)OOc2[nH]c3ccccc3c21 [Compound 1, 1-(3-methyl-9H-[1,2]dioxino[3,4-b]indol-4-yl)ethanone] | good antibacterial activities | 19 | 23 | 21 | 20
CC(=O)C1=C(C)OOc2[nH]c3ccc(Cl)cc3c21 [Compound 2, 1-(6-chloro-3-methyl-9H-[1,2]dioxino[3,4-b]indol-4-yl)ethanone] | good antibacterial activities | 15.5 | 16.5 | 17 | 15
CC(=O)C1=C(C)OOc2[nH]c3ccc(C)cc3c21 [Compound 3, 1-(3,6-dimethyl-9H-[1,2]dioxino[3,4-b]indol-4-yl)ethanone] | good antibacterial activities | 18 | 17 | 17 | 17.5
O=C(C1=C(c2ccccc2)OOc2[nH]c3ccccc3c21)c1ccccc1 [Compound 4, phenyl(3-phenyl-9H-[1,2]dioxino[3,4-b]indol-4-yl)methanone] | – | 11 | 12.5 | 11.5 | 12
O=C(C1=C(c2ccccc2)OOc2[nH]c3ccc(Cl)cc3c21)c1ccccc1 [Compound 5, (6-chloro-3-phenyl-9H-[1,2]dioxino[3,4-b]indol-4-yl)(phenyl)methanone] | – | 13.5 | 14.5 | 14 | 13
Cc1ccc2[nH]c3c(c2c1)C(C(=O)c1ccccc1)=C(c1ccccc1)OO3 [Compound 6, (6-methyl-3-phenyl-9H-[1,2]dioxino[3,4-b]indol-4-yl)(phenyl)methanone] | – | 15.5 | 16 | 16 | 15
CC(=O)C1=C(C)OOc2[nH]c3ccc(F)cc3c21 [Compound 7, 1-(6-fluoro-3-methyl-9H-[1,2]dioxino[3,4-b]indol-4-yl)ethanone] | – | 17.5 | 17 | 16.5 | 17
CC(=O)C1=C(C)OOc2[nH]c3cc(Cl)ccc3c21 [Compound 8, 1-(7-chloro-3-methyl-9H-[1,2]dioxino[3,4-b]indol-4-yl)ethanone] | – | 14 | 13 | 13.5 | 13
CC(=O)C1=C(C)OOc2[nH]c3c(F)cccc3c21 [Compound 9, 1-(8-fluoro-3-methyl-9H-[1,2]dioxino[3,4-b]indol-4-yl)ethanone] | – | 15.5 | 14.5 | 14 | 15
O=C(C1=C(c2ccccc2)OOc2[nH]c3ccc(F)cc3c21)c1ccccc1 [Compound 10, (6-fluoro-3-phenyl-9H-[1,2]dioxino[3,4-b]indol-4-yl)(phenyl)methanone] | – | 11 | 10.5 | 11.5 | 10
O=C(C1=C(c2ccccc2)OOc2[nH]c3cc(Cl)ccc3c21)c1ccccc1 [Compound 11, (7-chloro-3-phenyl-9H-[1,2]dioxino[3,4-b]indol-4-yl)(phenyl)methanone] | – | 12.5 | 11.5 | 11.5 | 12
O=C(C1=C(c2ccccc2)OOc2[nH]c3c(F)cccc3c21)c1ccccc1 [Compound 12, (8-fluoro-3-phenyl-9H-[1,2]dioxino[3,4-b]indol-4-yl)(phenyl)methanon] | – | – | 15 | 14.5 | 14
